The results in this text go back to patent US20090253669A1, “Substituted Sulfonamide Compounds” (GRUENENTHAL GmbH, priority 2008, published 2009).

The target in assay [1] is T1, human B1R receptor (hB1R) (Homo sapiens, UniProt P46663).
T1 construct: host or cells: CHO K1 cells
T1 sequence (P46663 1-353): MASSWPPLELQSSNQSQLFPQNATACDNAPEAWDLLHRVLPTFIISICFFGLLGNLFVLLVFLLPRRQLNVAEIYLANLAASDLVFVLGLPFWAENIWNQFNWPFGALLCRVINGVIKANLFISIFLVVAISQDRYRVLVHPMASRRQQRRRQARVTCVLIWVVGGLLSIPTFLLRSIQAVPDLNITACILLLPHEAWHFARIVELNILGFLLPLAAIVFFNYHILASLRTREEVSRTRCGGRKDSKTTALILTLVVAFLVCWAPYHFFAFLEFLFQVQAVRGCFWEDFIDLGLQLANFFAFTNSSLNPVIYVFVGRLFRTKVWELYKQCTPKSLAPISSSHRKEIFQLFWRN
The assay is described as follows: FLIPR Ca2+ assay on hB1R-transfected CHO K1 cells, antagonistic action. In kind it is cell-based.

Assay [2] deals with T2, B1R receptor of the rat (rB1R) (Rattus norvegicus, UniProt P97583).
T2 construct: host or cells: CHO K1 cells
T2 sequence (P97583 1-337): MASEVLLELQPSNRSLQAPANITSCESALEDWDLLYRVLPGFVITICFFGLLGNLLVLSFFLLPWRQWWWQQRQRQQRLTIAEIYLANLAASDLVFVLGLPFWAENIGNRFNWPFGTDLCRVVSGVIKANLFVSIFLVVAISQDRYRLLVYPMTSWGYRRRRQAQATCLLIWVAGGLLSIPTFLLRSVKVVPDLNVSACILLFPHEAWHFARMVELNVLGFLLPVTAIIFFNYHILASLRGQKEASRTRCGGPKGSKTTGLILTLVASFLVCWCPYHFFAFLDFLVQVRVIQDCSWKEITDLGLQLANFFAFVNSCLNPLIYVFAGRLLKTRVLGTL
The experiment in a line: FLIPR Ca2+ assay on rB1R-transfected CHO K1 cells, antagonistic action. In kind it is cell-based.

[3] abbreviates: CHO-K1, 10 μM test substance, agonist Lys-Des-Arg9-bradykinin 0.5 nM, % of maximum achievable inhibition, read-out: hB1R [10 μM] % inhibition.
Setting [4] is: CHO-K1, 10 μM test substance, agonist Des-Arg9-bradykinin 100 nM, % of maximum achievable inhibition, read-out: rB1R [10 μM] % inhibition.

Read-outs that look alike come from different tables or passages of the source.

As for `CN1CCN(C2(c3cccc(F)c3)CCN(C(=O)COCC3CCCCN3S(=O)(=O)c3ccccc3C(F)(F)F)CC2)CC1` (stereo not drawn) [Compound 225, 1-(4-(3-Fluorophenyl)-4-(4-methylpiperazin-1-yl)piperidin-1-yl)-2-((1-(2-(trifluoromethyl)phenylsulfonyl)piperidin-2-yl)methoxy)ethanone], the inhibition at 10 µM in assay [1] (CHO-K1, read-out: hB1R [10 μM] % inhibition) was 100%; in assay [2] (CHO-K1, read-out: rB1R [10 μM] % inhibition), 101%.
Regarding `CN(C)C1(c2ccccc2)CCC(NC(=O)COC2CCN(S(=O)(=O)c3c(Cl)cc(Cl)cc3Cl)C2)CC1` (stereo not drawn) [Compound 198, N-(4-(dimethylamino)-4-phenylcyclohexyl)-2-(1-(2,4,6-trichlorophenylsulfonyl)pyrrolidin-3-yloxy)acetamide], the figures for the inhibition at 10 µM in assay [1] (setting [3]) and in assay [2] (setting [4]) were 63% and 47%, respectively.
On the same counts, the results for `COc1cc(C)c(S(=O)(=O)N2CCC(OCC(=O)N(C)CC3CCC(CCc4ccccc4)(N4CCN(C)CC4)CC3)C2)c(C)c1` (stereo not drawn) [Compound 177, 2-(1-(4-methoxy-2,6-dimethylphenylsulfonyl)pyrrolidin-3-yloxy)-N-methyl-N-((4-(4-methylpiperazin-1-yl)-4-phenethylcyclohexyl)methyl)acetamide] are 103% and 76%.
On the same counts, the results for `COc1cc(C)c(S(=O)(=O)N2CCCCC2COCC(=O)N2CCC(CCc3ccccc3)(N(C)C)CC2)c(C)c1` (stereo not drawn) [Compound 50, 1-(4-(dimethylamino)-4-phenethylpiperidin-1-yl)-2-((1-(4-methoxy-2,6-dimethylphenylsulfonyl)piperidin-2-yl)methoxy)ethanone] are 102% and 100%.
On to `CN1CCN(C2(Cc3ccccc3)CCN(C(=O)CC(NS(=O)(=O)c3ccc4ccccc4c3)c3ccccc3)CC2)CC1` (stereo not drawn) [Compound 118, N-(3-(4-benzyl-4-(4-methylpiperazin-1-yl)piperidin-1-yl)-3-oxo-1-phenylpropyl)naphthalene-2-sulfonamide], for which the inhibition at 10 µM in assay [1] (setting [3]) worked out at 101%; in assay [2] (setting [4]), 69%.
On the same counts, the results for `COc1cc(C)c(S(=O)(=O)N2CCCC(OCC(=O)NC3CCC(Cc4ccccc4)(N4CCCC4)CC3)C2)c(C)c1` (stereo not drawn) [Compound 181, N-(4-benzyl-4-(pyrrolidin-1-yl)cyclohexyl)-2-(1-(4-methoxy-2,6-dimethylphenylsulfonyl)piperidin-3-yloxy)acetamide] are 78% and 71%.
On the same counts, the results for `CN1CCN(C2(c3cccc(F)c3)CCN(C(=O)CCCC3CCCCN3S(=O)(=O)c3ccc4ccccc4c3)CC2)CC1` (stereo not drawn) [Compound 216, 1-(4-(3-Fluorophenyl)-4-(4-methylpiperazin-1-yl)piperidin-1-yl)-4-(1-(naphthalen-2-ylsulfonyl)piperidin-2-yl)butan-1-one] are 100% and 95%.
Consider `COc1cc(C)c(S(=O)(=O)N(C)CCOCC(=O)N2CCC(c3cccc(F)c3)(N3CCN(C)CC3)CC2)c(C)c1` [Compound 44, N-(2-(2-(4-(3-fluorophenyl)-4-(4-methylpiperazin-1-yl)piperidin-1-yl)-2-oxoethoxy)ethyl)-4-methoxy-N,2,6-trimethylbenzenesulfonamide], for which the “hB1R [10 μM] % inhibition” value in assay [1] (10 μM test substance, agonist Lys-Des-Arg9-bradykinin 0.5 nM, % of maximum achievable inhibition) came to 102%. Besides, in assay [2] (10 μM test substance, agonist Des-Arg9-bradykinin 100 nM, % of maximum achievable inhibition), the “rB1R [10 μM] % inhibition” value was 101%.
On to `CN1CCN(C2(Cc3ccccc3)CCN(C(=O)COCC3CCc4ccccc4N3S(=O)(=O)c3ccc(Cl)c(Cl)c3)CC2)CC1` (stereo not drawn) [Compound 108, 1-(4-benzyl-4-(4-methylpiperazin-1-yl)piperidin-1-yl)-2-((1-(3,4-dichlorophenylsulfonyl)-1,2,3,4-tetrahydroquinolin-2-yl)methoxy)ethanone], for which the inhibition at 10 µM in assay [1] (setting [3]) was 60%; in assay [2] (setting [4]) it was 79%.
On the same counts, the results for `COc1cc(C)c(S(=O)(=O)N2CCC(OCC(=O)NC3CCC(c4ccccc4)(N4CCCCC4)CC3)C2)c(C)c1` (stereo not drawn) [Compound 27, 2-(1-(4-methoxy-2,6-dimethylphenylsulfonyl)pyrrolidin-3-yloxy)-N-(4-phenyl-4-(piperidin-1-yl)cyclohexyl)acetamide] are 69% and 51%.
On the same counts, the results for `COc1cc(C)c(S(=O)(=O)N2CCCC2COCC(=O)NC2CCC(Cc3ccccc3)(N3CCOCC3)CC2)c(C)c1` (stereo not drawn) [Compound 159, N-(4-benzyl-4-morpholinocyclohexyl)-2-((1-(4-methoxy-2,6-dimethylphenylsulfonyl)pyrrolidin-2-yl)methoxy)acetamide] are 45% and 98%.
Consider `Cc1cc(S(=O)(=O)N2CCCCC2CCC(=O)N2CCC(CCc3ccccc3)(N3CCN(C)CC3)CC2)c(C)cc1Cl` (stereo not drawn) [Compound 122, 3-(1-(4-chloro-2,5-dimethylphenylsulfonyl)piperidin-2-yl)-1-(4-(4-methylpiperazin-1-yl)-4-phenethylpiperidin-1-yl)propan-1-one], for which the inhibition at 10 µM in assay [1] (setting [3]) came out at 105%; in assay [2] (setting [4]), 66%.
On the same counts, the results for `O=C(COC1CCN(S(=O)(=O)c2c(Cl)cc(Cl)cc2Cl)C1)NC1CCC(c2ccccc2)(N2CCCC2)CC1` (stereo not drawn) [Compound 178, N-(4-phenyl-4-(pyrrolidin-1-yl)cyclohexyl)-2-(1-(2,4,6-trichlorophenylsulfonyl)pyrrolidin-3-yloxy)acetamide] are 53% and 76%.
On the same counts, the results for `COc1cc(C)c(S(=O)(=O)N2CCCC(OCC(=O)NC3CCC(Cc4ccccc4)(N4CCOCC4)CC3)C2)c(C)c1` (stereo not drawn) [Compound 190, N-(4-benzyl-4-morpholinocyclohexyl)-2-(1-(4-methoxy-2,6-dimethylphenylsulfonyl)piperidin-3-yloxy)acetamide] are 90% and 57%.
Turning to `CN(C)C1(c2ccccc2)CCN(C(=O)COCC2CCc3ccccc3N2S(=O)(=O)c2ccc(Cl)c(Cl)c2)CC1` (stereo not drawn) [Compound 109, 2-((1-(3,4-dichlorophenylsulfonyl)-1,2,3,4-tetrahydroquinolin-2-yl)methoxy)-1-(4-(dimethylamino)-4-phenylpiperidin-1-yl)ethanone], the values for the inhibition at 10 µM in assay [1] (setting [3]) and in assay [2] (setting [4]) were 80% and 78%, respectively.
On the same counts, the results for `CN(CCC1CCC(c2ccccc2)(N2CCCC2)CC1)C(=O)CC(NS(=O)(=O)c1ccc2ccccc2c1)c1ccccc1` (stereo not drawn) [Compound 40, N-methyl-3-(naphthalene-2-sulfonamido)-3-phenyl-N-(2-(4-phenyl-4-(pyrrolidin-1-yl)cyclohexyl)ethyl)propanamide] are 103% and 101%.
On the same counts, the results for `COc1cc(C)c(S(=O)(=O)N2CCCC(OCC(=O)N(C)CC3CCC(Cc4ccccc4)(N4CCN(C)CC4)CC3)C2)c(C)c1` (stereo not drawn) [Compound 184, N-((4-benzyl-4-(4-methylpiperazin-1-yl)cyclohexyl)methyl)-2-(1-(4-methoxy-2,6-dimethylphenylsulfonyl)piperidin-3-yloxy)-N-methylacetamide] are 93% and 65%.
On the same counts, the results for `CN1CCN(C2(c3cccc(F)c3)CCN(C(=O)COCC3CCc4ccccc4N3S(=O)(=O)c3ccc4ccccc4c3)CC2)CC1` (stereo not drawn) [Compound 228, 1-(4-(3-Fluorophenyl)-4-(4-methylpiperazin-1-yl)piperidin-1-yl)-2-((1-(naphthalen-2-ylsulfonyl)-1,2,3,4-tetrahydroquinolin-2-yl)methoxy)ethanone] are 100% and 101%.
For `COc1cc(C)c(S(=O)(=O)N(C)CCOCC(=O)N(C)CC2CCC(CCc3ccccc3)(N3CCCC3)CC2)c(C)c1` (stereo not drawn) [Compound 47, 2-(2-(4-methoxy-N,2,6-trimethylphenylsulfonamido)ethoxy)-N-methyl-N-((4-phenethyl-4-(pyrrolidin-1-yl)cyclohexyl)methyl)acetamide], the inhibition at 10 µM in assay [1] (setting [3]) is 102%; in assay [2] (setting [4]), 100%.
On the same counts, the results for `COc1cc(C)c(S(=O)(=O)N2CCCC(COCC(=O)N(C)CC3CCC(CCc4ccccc4)(N4CCN(C)CC4)CC3)C2)c(C)c1` (stereo not drawn) [Compound 182, 2-((1-(4-methoxy-2,6-dimethylphenylsulfonyl)piperidin-3-yl)methoxy)-N-methyl-N-((4-(4-methylpiperazin-1-yl)-4-phenethylcyclohexyl)methyl)acetamide] are 106% and 67%.
On the same counts, the results for `CN(C)C1(c2ccccc2)CCC(NC(=O)COCCN(C)S(=O)(=O)c2c(Cl)cc(Cl)cc2Cl)CC1` (stereo not drawn) [Compound 199, N-(4-(dimethylamino)-4-phenylcyclohexyl)-2-(2-(2,4,6-trichloro-N-methylphenylsulfonamido)ethoxy)acetamide] are 76% and 36%.
